Here are results for seven compounds from patent US20140249084A1, “PTH-CONTAINING THERAPEUTIC/PROPHYLACTIC AGENT FOR OSTEOPOROSIS, CHARACTERIZED IN THAT PTH IS ADMINISTERED ONCE A WEEK IN A UNIT DOSE OF 100 TO 200 UNITS” (ASAHI KASEI PHARMA CORPORATION, priority 2009, published 2014).

Data set [1] concerns nausea and vomiting associated with administration of the test drug. Description: Prescriptions for nausea and vomiting associated with administration of the test drug. The format is in vivo, human. Particulars: summary of Table 18.
From the text: The administration period and efficacy of various drugs to treat nausea and vomiting associated with administration of the test drug were studied.
The conditions of data set [2]: 20 μg/day, Non-patent Reference 1, cited from earlier work.
The conditions of data set [3]: conventional daily administration; osteoporosis patients having moderate renal dysfunction; Non-patent Reference 32; cited from earlier work.
For data set [4], the system named is patients having prednisone-induced osteoporosis complicated by arthralgia. Particulars: daily administration, Non-patent References 23 and 24; cited from earlier work.

Structures can show the parent of a compound that is named as a salt.

As for `NC(N)=Nc1nc(CSCCC(N)=NS(N)(=O)=O)cs1` [Gaster D, famotidine], the “Effect on nausea and vomiting associated with administration of the test drug (summary)” value (shortened to “Effect on nausea and vomiting associated”) in data set [1] is listed as “effective”.
Take “PTH: PTH (parathyroid hormone) in conventional daily administration (20 μg/day), results from cited literature”: the “Patients with persistent hypercalcemia” value in data set [2] is recorded as 3%. The Patients with hypercalcemia in data set [2] (blood samples 4 to 6 hours after administration) is 11%. In data set [3], the “Patients with serum calcium exceeding 11.0 mg/mL after administration” value is on record as 11.76%.
`CC[C@H](C)[C@H](NC(=O)[C@H](CCC(=O)O)NC(=O)[C@H](CO)NC(=O)[C@@H](NC(=O)[C@@H](N)CO)C(C)C)C(=O)N[C@@H](CCC(N)=O)C(=O)N[C@@H](CC(C)C)C(=O)N[C@@H](CCSC)C(=O)N[C@@H](Cc1cnc[nH]1)C(=O)N[C@@H](CC(N)=O)C(=O)N[C@@H](CC(C)C)C(=O)NCC(=O)N[C@@H](CCCCN)C(=O)N[C@@H](Cc1cnc[nH]1)C(=O)N[C@@H](CC(C)C)C(=O)N[C@@H](CC(N)=O)C(=O)N[C@@H](CO)C(=O)N[C@@H](CCSC)C(=O)N[C@@H](CCC(=O)O)C(=O)N[C@@H](CCCN=C(N)N)C(=O)N[C@H](C(=O)N[C@@H](CCC(=O)O)C(=O)N[C@@H](Cc1c[nH]c2ccccc12)C(=O)N[C@@H](CC(C)C)C(=O)N[C@@H](CCCN=C(N)N)C(=O)N[C@@H](CCCCN)C(=O)N[C@@H](CCCCN)C(=O)N[C@@H](CC(C)C)C(=O)N[C@@H](CCC(N)=O)C(=O)N[C@@H](CC(=O)O)C(=O)N[C@H](C(=O)N[C@@H](Cc1cnc[nH]1)C(=O)N[C@@H](CC(N)=O)C(=O)N[C@@H](Cc1ccccc1)C(=O)O)C(C)C)C(C)C` [Forteo, teriparatide (rDNA origin) injection]: the “Bone strengthening effect compared with Fosamax” value in data set [4] is “stronger bone strengthening effect than Fosamax”.
As for `O=c1[nH]c2ccccc2n1CCCN1CCC(n2c(=O)[nH]c3cc(Cl)ccc32)CC1` [Nauzelin, domperidone], the “Effect on nausea and vomiting associated” value in data set [1] is given as “effective”.
With `CCOc1cc(N)c(Cl)cc1C(=O)NCC1CN(Cc2ccc(F)cc2)CCO1` (stereo not drawn) [Gasmotin, mosapride citrate], the “Effect on nausea and vomiting associated” value in data set [1] is recorded as “effective”.
Same read-out and setting: the result for `CCN(CC)CCNC(=O)c1cc(Cl)c(N)cc1OC` [Primperan, metoclopramide] reads “effective”.
As for `Cc1c(OCC(F)(F)F)ccnc1C[S+]([O-])c1nc2ccccc2[nH]1` (stereo not drawn) [Takepron OD, lansoprazole], the “Effect on nausea and vomiting associated” value in data set [1] is “effective”.
